According to PubChem BioAssay AID248 (DTP/NCI, 2004):
“And” between values parts separate entries of the source, which are not always exact repeats. Equal values may be shown once. Inconclusive results and toxic doses are left out. Rule as the data show it: active = T/C of 150% or more; inactive = T/C below 125%.

Test system: L1210 leukemia ip in BDF1 mice, survival T/C
Test: NCI In Vivo Anticancer Drug Screen. Data for tumor model L1210 Leukemia (intraperitoneal) in B6D2F1 (BDF1) mice
Details: endpoint: mean survival time, higher = longer survival
In short: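 Each compound was tested against a transplantable tumor grown in mice. The endpoint was survival, with treated animals benchmarked against vehicle controls as a simple ratio.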

[1] = dose: 100.0 mg/kg/injection, schedule: Q01DX001 (ip), vehicle: carboxymethylcellulose (CMC)
[2] = dose: 200.0 mg/kg/injection, schedule: Q01DX001 (ip), vehicle: carboxymethylcellulose (CMC)
[3] = dose: 100.0 mg/kg/injection, schedule: Q01DX009 (ip), vehicle: water
[4] = dose: 200.0 mg/kg/injection, schedule: Q01DX009 (ip), vehicle: water

Measured: T/C

Cc1ccc(S(=O)(=O)F)cc1C(=O)O
inactive: [1] 96 % of control and 106 % of control | dose: 100.0 mg/kg/injection, schedule: Q01DX009 (ip), vehicle: carboxymethylcellulose (CMC) 93 % of control and 102 % of control | dose: 100.0 mg/kg/injection, schedule: Q04DX002 (ip), vehicle: gum acacia 101 % of control and 111 % of control | dose: 100.0 mg/kg/injection, schedule: Q04DX003 (ip), vehicle: carboxymethylcellulose (CMC) 93 % of control and 98 % of control | [2] 95 % of control and 100 % of control | dose: 200.0 mg/kg/injection, schedule: Q01DX009 (ip), vehicle: carboxymethylcellulose (CMC) 99 % of control and 100 % of control | dose: 200.0 mg/kg/injection, schedule: Q04DX002 (ip), vehicle: gum acacia 101 % of control and 104 % of control | dose: 200.0 mg/kg/injection, schedule: Q04DX003 (ip), vehicle: carboxymethylcellulose (CMC) 102 % of control | dose: 400.0 mg/kg/injection, schedule: Q04DX002 (ip), vehicle: gum acacia 107 % of control | dose: 400.0 mg/kg/injection, schedule: Q04DX003 (ip), vehicle: carboxymethylcellulose (CMC) 93 % of control

CN(C)CCC(=O)O
inactive: dose: 100.0 mg/kg/injection, schedule: Q01DX009 (ip), vehicle: saline 92 % of control | dose: 100.0 mg/kg/injection, schedule: Q04DX003 (ip), vehicle: saline sonified 108 % of control | dose: 200.0 mg/kg/injection, schedule: Q01DX009 (ip), vehicle: saline 97 % of control | dose: 200.0 mg/kg/injection, schedule: Q04DX003 (ip), vehicle: saline sonified 105 % of control | dose: 400.0 mg/kg/injection, schedule: Q01DX009 (ip), vehicle: saline 94 % of control | dose: 400.0 mg/kg/injection, schedule: Q04DX003 (ip), vehicle: saline sonified 95 % of control

COC(=O)CNCc1ccccc1
inactive: [3] 98 % of control | [4] 115 % of control | dose: 400.0 mg/kg/injection, schedule: Q01DX009 (ip), vehicle: water 100 % of control

COc1nc(=S)n2[nH]cnc2n1
inactive: dose: 12.5 mg/kg/injection, schedule: Q01DX009 (ip), vehicle: saline 89 % of control | dose: 25.0 mg/kg/injection, schedule: Q01DX009 (ip), vehicle: saline 94 % of control | dose: 50.0 mg/kg/injection, schedule: Q01DX009 (ip), vehicle: saline 109 % of control | dose: 50.0 mg/kg/injection, schedule: Q04DX003 (ip), vehicle: saline 102 % of control | dose: 100.0 mg/kg/injection, schedule: Q04DX003 (ip), vehicle: saline 91 % of control | dose: 200.0 mg/kg/injection, schedule: Q04DX003 (ip), vehicle: saline 92 % of control

COc1ccc2c(c1C)OC(C)C2=O (configuration not stated)
inactive: dose: 100.0 mg/kg/injection, schedule: Q01DX009 (ip), vehicle: Klucel (hydroxypropylcellulose) (HPC) 93 % of control | dose: 100.0 mg/kg/injection, schedule: Q04DX003 (ip), vehicle: Klucel (hydroxypropylcellulose) (HPC) 101 % of control | dose: 200.0 mg/kg/injection, schedule: Q01DX009 (ip), vehicle: Klucel (hydroxypropylcellulose) (HPC) 92 % of control | dose: 200.0 mg/kg/injection, schedule: Q04DX003 (ip), vehicle: Klucel (hydroxypropylcellulose) (HPC) 104 % of control | dose: 400.0 mg/kg/injection, schedule: Q01DX009 (ip), vehicle: Klucel (hydroxypropylcellulose) (HPC) 104 % of control | dose: 400.0 mg/kg/injection, schedule: Q04DX003 (ip), vehicle: Klucel (hydroxypropylcellulose) (HPC) 97 % of control

O=C1c2ccccc2CC1(c1ccccc1)c1ccccc1
inactive: [1] 91 % of control | [2] 94 % of control | dose: 400.0 mg/kg/injection, schedule: Q01DX001 (ip), vehicle: carboxymethylcellulose (CMC) 94 % of control

NC(CSS(=O)(=O)O)=NCc1ccncc1
inactive: dose: 25.0 mg/kg/injection, schedule: Q04DX002 (ip), vehicle: saline 95 % of control | dose: 50.0 mg/kg/injection, schedule: Q04DX002 (ip), vehicle: saline 103 % of control | dose: 100.0 mg/kg/injection, schedule: Q04DX002 (ip), vehicle: saline 123 % of control

CCOC(=O)N=C=O
inactive: [3] 103 % of control | dose: 100.0 mg/kg/injection, schedule: Q04DX003 (ip), vehicle: water 95 % of control | [4] 100 % of control | dose: 200.0 mg/kg/injection, schedule: Q04DX003 (ip), vehicle: water 101 % of control | dose: 400.0 mg/kg/injection, schedule: Q04DX003 (ip), vehicle: water 101 % of control
